Values of other authors in patent publication EP4459286A1, “KIT FOR QUANTITATIVELY DETERMINING TACROLIMUS IN WHOLE BLOOD BY LOW-RESISTANCE LATEX-ENHANCED IMMUNE COMPETITION METHOD, AND USE THEREOF” (SHANGHAI YUNZE BIOTECHNOLOGY CO., LTD, priority 2021, dated 2023).
Read-outs that look alike come from different tables or passages of the source.

How the values were obtained:
[1] = rescue therapy, cyclosporine ineffective
[2] = compared with cyclosporine

C=CC[C@@H]1/C=C(\C)C[C@H](C)C[C@H](OC)[C@H]2O[C@@](O)(C(=O)C(=O)N3CCCC[C@H]3C(=O)O[C@H](/C(C)=C/[C@@H]3CC[C@@H](O)[C@H](OC)C3)[C@H](C)[C@@H](O)CC1=O)[C@H](C)C[C@@H]2OC [tacrolimus, Tacrolimus]
success rate ([1]; kidney transplantation patients): 74%
success rate ([1]; liver transplantation patients): 87%
effect of preventing rejection in various organ transplants [2]: superior to that of cyclosporine
